The values below come from a melting point compilation (Tetko et al.; mined from patent text by program, amines drawn as free bases though some values may be those of a salt).

Molecules are shown by their SMILES.

With `CCc1nnc2c(Cl)nc3cc(OC)ccc3n12`, the melting point lay in the range of 173 to 175 °C.

In the case of `O=C(Nc1ccc(OS(=O)(=O)c2cccc(C(F)(F)F)c2)cc1[N+](=O)[O-])NS(=O)(=O)Cl`, the melting point came to 152 °C.

As for `O=C(O)C1=Cc2cc(Cl)c(Oc3ccc([N+](=O)[O-])cc3)cc2OC1C(F)(F)F` (stereo not given), the melting point fell in the range of 246 to 248 °C.

As to `CSc1cc(-c2ccccc2)nc(-c2cccc(C(F)(F)F)c2)c1`, the melting point was found to be 79.1 °C.

`COc1cc(C(=O)NS(=O)(=O)c2ccccc2C)ccc1Cc1c(Cl)n(C)c2ccc(CC(C)NC(=O)N(C)C)cc12` (stereo not given) had a melting point of 120 to 130 °C.

Consider `CC(/C=C1/C(=O)N(c2ccccc2)C1c1ccccc1)=NOCCCN1CCCCC1` (stereo not given), for which the melting point was 120 to 122 °C.

As to `NC(=O)c1c(F)ccc(OCC(=O)O)c1F`, the melting point is 152 to 153 °C.

In turn, `CCCCCCCCCCCCCCCCC#CCC(CO)COCCCCCCCCCCCCCCCC` (stereo not given) came in with a melting point of 46 to 47 °C.

Compound `COc1nccc(-c2c(-c3ccc(F)cc3)ncn2C2CCC(O)(CO)CC2)n1` (stereo not given) yielded a melting point of 225 to 226 °C.

`CCc1ccccc1-n1ncc(C#N)c1N` displayed a melting point of 130 °C.

`COC(=O)[C@H]1CC[C@@H](NC(=O)c2cc(-c3ccc(C#N)cc3)nn(C)c2=O)CC1` yielded a melting point of 190 to 192 °C.

The compound `O=C(Nc1ccccc1)c1ccccn1` registered a melting point of 75 to 77 °C.

`CCCCc1ncc(/C=C(/CO)Cc2cccs2)n1Cc1ccccc1Cl` came in with a melting point of 114 to 115 °C.

As to `c1ccc2c(c1)ncc1nc(C3CCC3)[nH]c12`, the melting point lay in the range of 191 to 192 °C.

With `CS(=O)(=O)Nc1cc(N)c([N+](=O)[O-])cc1OC1CCCCC1`, the melting point was in the range of 136 to 137 °C.

For the compound `Cc1nc2cnccc2n1-c1ccc(O)cc1`, the melting point is 265 to 267 °C.

The compound `Nc1cc2nc(C(=O)O)c(=O)[nH]c2cc1[N+](=O)[O-]` registered a melting point of 300 °C.

Compound `O=C(O)/C=C(/C#Cc1ccccc1)c1ccccc1` registered a melting point of 124 to 126 °C.

For the compound `Cc1cc(Oc2ncc(C(F)(F)F)cc2Cl)nn1C(N)=O`, the melting point was in the range of 101 to 104 °C.

Consider `Cc1ccc(S(=O)(=O)N2[C@H](CCCc3nnnn3C)CC[C@@H]2c2ccc(F)cc2)cc1` (racemic), for which the melting point was determined as 153 °C.

Turning to `CCCCCCN1C(=O)C(=O)c2cc(SCCCc3ccc(C(=O)O)cc3)ccc21`, the melting point is 150 to 152 °C.

The compound `CCCn1c(=O)c(N=O)c(N)n(CC2CCCCC2)c1=O` came in with a melting point of 231 to 233 °C.

Compound `Clc1ccccc1-c1cnc2nncn2n1` had a melting point of 145 to 148 °C.

Regarding `CCCCCCCN(CCO)c1ccc2c(c1)Oc1cc(=C(C#N)C#N)c3ccccc3c1=N2`, the melting point lay in the range of 155 to 157 °C.

On to `O=C1CCC(N2Cc3cc(CNC(=O)NC4CCCCC4)ccc3C2=O)C(=O)N1` (stereo not given), for which the melting point was 265 to 267 °C.

For the compound `COc1ccc(C(=O)NCCc2cccs2)cc1`, the melting point is 109 to 111 °C.

In turn, `CC1CCC(N2c3ccccc3Oc3ccccc32)=N1` (stereo not given) yielded a melting point of 135 to 137 °C.

`O=Cc1ccc(F)cc1-c1noc2ccc(F)cc12` yielded a melting point of 165 to 166 °C.

In turn, `COc1cc2c(s1)c(=O)c(SC)cn2C` returned a melting point of 185 to 187 °C.

Turning to `COC(=O)c1ccc(/C=C/c2c(OC)cc3c(c2OC)C(C)(C)CCC3(C)C)cc1`, the melting point lay in the range of 140 to 142 °C.

For the compound `NCc1ccc(C(=O)CCCN2CCC(c3ccc(Cl)cc3)CC2)cc1`, the melting point was in the range of 94 to 96 °C.

Consider `Cc1onc(C(=O)c2c(F)cccc2F)c1NC(=O)CBr`, for which the melting point fell in the range of 76 to 80 °C.

For `CN(C)CC1CCc2cc(OCc3ccc(NC(=O)Cc4ccccc4)cc3)ccc2C1` (stereo not given), the melting point lay in the range of 130 to 135 °C.

In the case of `CCc1nc2cc(C(F)(F)F)c(Cl)cc2n1-c1ccc(CCOC(=O)NS(=O)(=O)c2cn(C)c(C)n2)cc1`, the melting point stood at 221 °C.

Regarding `OCc1ccc(-c2ccccc2)s1`, the melting point was 91.5 °C.

`CC12CCC3C(CCC4CC(F)CCC43C)C1CCC2=O` (stereo not given) had a melting point of 126 to 127 °C.

`CCCCOc1c(C(=O)O)n(CC(C)(C)C)c(=O)c2cc(F)ccc12`: the melting point is 184 to 185 °C.

Take `O=C1C(=O)c2ccccc2C2=C1SCC1(CCN(CC3CC3)CC1)O2`: the melting point was 161 to 164 °C.

`COC(=O)CCOc1ccc(C=O)cc1` gave a melting point of 48 to 50 °C.

Compound `COc1cc2c(cc1C)CCN=C2C1(c2ccco2)CC1` yielded a melting point of 98 to 100 °C.

As for `CCOC(=O)Nc1ccc(Br)cc1F`, the melting point was in the range of 72 to 73 °C.

On to `CCOCc1nc2c(N)nc3ccccc3c2n1CCNC(=O)CCCCC1SCC2NC(=O)NC21` (stereo not given), for which the melting point was 171 to 175 °C.

For `CC(C)(Oc1ccc(Cc2ccccc2)cc1)C(=O)O`, the melting point worked out at 130 °C.

The compound `CCOC(=O)c1ncn(-c2nc(C)cs2)c1S` returned a melting point of 193 to 195 °C.

The compound `CC(C)(C)OC(=O)N1CCC[C@H]1COc1cccc2[nH]ncc12` yielded a melting point of 125 °C.

As for `O=C(O)CCNc1c2ccc(Cl)cc2nc2c(=O)[nH][nH]c(=O)c12`, the melting point lay in the range of 356 to 359 °C.

Take `Cc1ccnc(-c2cccc([N+](=O)[O-])c2)c1`: the melting point was in the range of 80 to 82 °C.

For the compound `CC(C(=O)O)N(C(=O)OC(C)(C)C)c1ccc([N+](=O)[O-])cc1` (stereo not given), the melting point fell in the range of 100 to 104 °C.

`Cc1ccccc1C(CCC(=O)O)Oc1cc(OCc2cccnc2)ccc1C#N` (stereo not given) came in with a melting point of 130 to 134 °C.

On to `Nc1cccc(-n2nnnc2S)c1`, for which the melting point worked out at 205 °C.

As to `CC(C)n1nc(-c2c(-c3ccccc3)nn3ccc(OCCc4ccccc4)cc23)ccc1=O`, the melting point was 154 to 156 °C.

`O=C1N(Cc2ccccc2)c2cc(Cl)cc(N3CCNCC3)c2S(=O)(=O)N1Cc1cccc(O)c1` gave a melting point of 230 to 231 °C.

`CC(c1ccccc1)C(C)([N+](=O)[O-])[N+](=O)[O-]` (stereo not given): the melting point lay within 76 to 78 °C.

Compound `CCCC(=O)Nc1cc(NC(=O)CCC)c2ccc(C)nc2c1OC(=O)CCC` had a melting point of 195 to 200 °C.

For `O=C(Cc1ccccn1)OC(=O)Cc1ccccn1`, the melting point fell in the range of 105 to 106 °C.

`CCOC(=O)c1ccccc1-c1cc(-c2ccc(Cl)cc2Cl)no1`: the melting point was in the range of 85 to 86 °C.

`N#CC(C(=O)NCc1ccccc1Cl)C(=O)c1nn(-c2ccccc2)c2c1CSc1ccccc1-2` (stereo not given) came in with a melting point of 228 to 230 °C.

As for `Cc1c(C#N)c(N)n(-c2c(Br)cc(C(F)(F)F)cc2Br)c1C`, the melting point was 158 to 161 °C.

`Clc1ccc2c(c1)Oc1ccccc1C=C2CBr` had a melting point of 117 to 119 °C.

`O=[N+]([O-])c1ccc2c(c1)OC(CC(F)(F)F)(C(F)(F)F)O2` (stereo not given) gave a melting point of 87 to 88 °C.

In the case of `Nc1ccn(C2OC(CO)C(O)C2O)c(=O)c1Br` (stereo not given), the melting point is 202 to 204 °C.

As for `OC(CNC1CC1)c1cccc(Cl)c1` (stereo not given), the melting point was in the range of 71.3 to 73.2 °C.

`COc1cc(C(C)(C)C)c(O)c(C(=O)Nc2ccc(S(=O)(=O)C(F)(F)F)cc2Cl)c1C` yielded a melting point of 121 to 122 °C.

The compound `CCN(CC)C(=O)n1nc(C(C)(C)C)cc1SC` gave a melting point of 55 to 56 °C.

On to `CCOC(=O)CNC(=O)[C@H](CC(C)C)NC(=O)[C@@H]1CCCN1C(=O)OCc1ccccc1`, for which the melting point lay in the range of 149 to 150 °C.

As to `COC(=O)c1cccc(-c2c(C#N)nn(-c3c(Cl)cc(C(F)(F)F)cc3Cl)c2N)c1`, the melting point was 214 to 216 °C.

Consider `CCOC(=O)N1CCn2c(nc(-c3ccncc3)cc2=O)C(NC(=O)c2ccc3c(c2)CNCC3)C1` (racemic), for which the melting point is 258 to 260 °C.

As for `O=C(O)c1cccc(Oc2ncccc2C(=O)NCc2ccccc2)c1`, the melting point fell in the range of 157 to 158 °C.

On to `CCOC(=O)C1=Cc2cc(Br)ccc2N(C=O)CC1`, for which the melting point lay within 150 to 152 °C.

Compound `CN1C(C(=O)NC2N=C3CCSC=C3S2)=C(O)c2ccc3ccccc3c2S1(=O)=O` (stereo not given) returned a melting point of 255 °C.

`CN(C)c1cc(N)c(C(=O)O)cc1[N+](=O)[O-]` yielded a melting point of 240 to 250 °C.

Take `O=C(F)[C@@H]1C[C@H](F)CN1C(=O)OCC1c2ccccc2-c2ccccc21`: the melting point lay within 127 to 128 °C.

As for `O=S(=O)(CC=C1CCCCC1)c1ccccc1`, the melting point came to 70 °C.

`Cc1nc(NC(=O)c2cnn3c(C(F)(F)F)cc(-c4ccc(C(F)(F)F)cc4)nc23)sc1S(=O)(=O)N1CCN(C)CC1` gave a melting point of 273 °C.

The compound `O=C(Nc1cccc2c1C(=O)c1c-2n[nH]c1C1CCN(C(=O)N2CCNCC2)CC1)NN1CCOCC1` had a melting point of 195 to 197 °C.

Compound `CN(C)c1cc(Oc2cccc(C(F)(F)F)c2)nc(C(=O)O)c1` came in with a melting point of 61 to 66 °C.

Compound `CCOc1cc(C(CC(=O)OC)N2C(=O)c3cccc(N)c3C2=O)ccc1OC` (stereo not given) showed a melting point of 134 to 136 °C.

`C=CCN(c1ccccc1)c1ncc(C(C)C(=O)O)s1` (stereo not given) showed a melting point of 134 to 135 °C.

As to `COCCOc1ccc(/C=C(\C)C(=O)O)c(Oc2ncc(C(F)(F)F)cc2Cl)c1`, the melting point is 122 °C.

The compound `C[C@@H](COS(C)(=O)=O)NS(=O)(=O)c1ccccc1[N+](=O)[O-]` returned a melting point of 125 to 126 °C.

`c1ccc2c(c1)NCc1c(-c3noc(C4CC4)n3)ncn1-2` came in with a melting point of 243 to 245 °C.

For `O=C(CO)Cc1ccc(Cl)cc1`, the melting point amounted to 53.5 °C.

The compound `CCn1ncc2nc(C(=O)NC)c(-c3ccccc3)nc21` returned a melting point of 165 to 166 °C.

`CC(C)(C)c1ccc(C(=O)Nc2cn3nc(NCCO)ccc3n2)cc1` showed a melting point of 231 to 233 °C.

Compound `O=C(O)C1CCc2c([nH]c3ccc(F)cc23)C1` (stereo not given) registered a melting point of more than 200 °C.

`CC(C)(C)c1csc(-c2cc3cc(CC(C(=O)O)C(=O)O)ccc3o2)n1` registered a melting point of more than 320 °C.

On to `Nc1ncccc1-c1nc2ccc(-c3cccnc3)nc2n1-c1ccc(CNC(=O)c2ccccc2)cc1`, for which the melting point fell in the range of 253 to 256 °C.

In turn, `CN1CCCC(c2cc3ccccc3c(=O)[nH]2)C1` (stereo not given) had a melting point of 155 to 156 °C.

`O=CNCS(=O)(=O)c1ccc2ccccc2c1`: the melting point lay in the range of 139 to 141 °C.

With `C=CCC(Cc1ccc([N+](=O)[O-])cc1)NC(=O)OCc1ccccc1` (stereo not given), the melting point lay in the range of 94 to 95 °C.

As a reminder, the melting point is the temperature of the solid-liquid transition.
